The experiment deals with human MYCN-amplified SK-N-DZ neuroblastoma xenograft tumors. Nature of the experiment: In vivo mouse xenograft tumor model. The note with it: 20 mg/kg i.p. daily, 1-2 weeks. The method, then: SK-N-DZ MYCN-amplified neuroblastoma xenograft tumors reaching a volume of 100-200 mm^3 were treated with Example 1 (20 mg/kg body weight) or vehicle injected i.p. daily for 1-2 weeks. A) Apoptosis was determined by TUNEL staining of tumor tissues from mice treated with Example 1 or vehicle, counterstained with DAPI. Quantification of TUNEL staining was normalized to whole tumor areas as determined by DAPI from three Example 1- and three vehicle-treated mice. Student's t-test of Example 1 vs. vehicle; p=0.0083. B) Cell proliferation determined by Ki67 of tumor tissues from mice treated with Example 1 or vehicle, respectively, and counterstained with DAPI. Quantification of Ki67 negative areas normalized to whole tumor areas by DAPI from three Example 1- and three vehicle-treated mice. Student's t-test of Example 1 vs. vehicle; p=0.0380. C) Microvascular density visualized by CD31 staining in the red. C) Quantification of CD31 staining normalized to whole tumor areas from three Example 1- and three vehicle-treated mice. Student's t-test of Example 1 vs. vehicle; p=0.014. D) Detection of MYCN:MAX protein interaction by isPLA performed on tumor tissue from mice treated with Example 1 or vehicle using antibodies against MYCN and MAX. Quantification of MYCN:MAX isPLA signals in tumor tissue from Example 1- and vehicle-treated mice, presented as average number of dots from four randomly chosen microscopic fields from Example 1 treated mice normalized to corresponding values from vehicle-treated mice (F=28.102, P=0.008). E) Apoptosis determined from TUNEL stained tumor section derived from a MDA-MB231 xenograft mouse treated with Example 2 for 2 weeks. Quantification of apoptotic cells per counted field.
To validate the efficacy of Example 1 in tumor tissue in vivo, we utilized a mouse xenograft tumor model based on human MYCN-amplified SK-N-DZ neuroblastoma cells. Tumor cells (5×10^6) were injected into the flank of athymic nude mice and allowed to form tumors after which Example 1 or vehicle were administered by daily intraperitoneal injection at a dose of 20 mg/kg body weight for 1-2 weeks.

As for `CCOc1ccc2nc3cc(/N=N/c4ccc(N)nc4N)ccc3c(N)c2c1` [Example 1, 3-((9-amino-7-ethoxyacridin-3-yl)diazenyl)pyridine-2,6-diamine sulphate hydrate], the “CD31 Decrease in microvascular density” value was 44 % of vehicle, the “Ki67 Increase in Ki67-negative tumor area relative to vehicle” value is listed as 550%, the “MYCN:MAX interactions in tumors (isPLA) vs vehicle” value was “significant reduction” and the “MYCN:MAX isPLA signal relative to vehicle” value is recorded as 66 % of vehicle. Moreover, the “TUNEL Increase in apoptotic tumor area relative to vehicle” value is reported as 1420%, the “apoptotic tumor areas (TUNEL) vs vehicle” value is on record as “dramatic increase”, the “microvascular density (CD31) vs vehicle” value is listed as “significantly reduced” and the “non-proliferative areas (Ki67) vs vehicle” value was “significant increase”.

The values above are taken from patent US11896589B2, “Diazinyl amino acridines and medical uses thereof” (MyCural Therapeutics AB, priority 2018, dated 2024).
